# Assay results published in US9540702B2, “Stabilization of enzymes with stable coenzymes” (Roche Diabetes Care, Inc., priority 2009, dated 2017).
# Experiments:
# [1] = tested on: malate dehydrogenase; conditions: 3.8 mM ligand; 0.5M carbonate buffer, pH 10.0
# [2] = target: glucose dehydrogenase (wild-type) (Bacillus subtilis, UniProt P12310); assay: DSC of coenzyme binding; conditions: 3.8 mM ligand; 0.1 M Tris buffer, pH 8.5
# [3] = Residual content of coenzyme in glucose detection reagent after storage at 32° C. and 85% relative air humidity; assay type: physicochemical; conditions: 24 weeks storage at 32° C. and 85% relative air humidity
# Procedure: (§1) carbaNAD (FIG. 1A) or NAD were added to the glucose-specific GlucDH. These formulations were each applied to Pokalon foils (Lonza) and, after drying, stored under warm and humid conditions (32° C., 85% relative air humidity). Subsequently, the reaction kinetics and the function curve were determined at regular intervals. In parallel at each of the measurement times a cNAD/NAD analysis and a determination of the residual activity of the enzyme were carried out.
# According to this the residual content of cNAD in a glucose detection reagent is still about 80% of the initial value after 24 weeks storage (at 32° C. and 85% relative air humidity), whereas the content of NAD in a glucose detection reagent stabilized with NAD is already reduced to about 35% of the initial value after 5 weeks and, by extrapolation, is reduced to zero after about 17 weeks.
# [4] = target: GlucDH_E170K_K252L (GlucDH-mut2) (Bacillus subtilis, UniProt P12310, A229V/A236S/E170K/Q252L); assay: Residual activity of GlucDH mutant 2 after storage with coenzyme; assay type: biochemical; conditions: 24 weeks at 32° C. and 85% relative air humidity
# Procedure: as §1
# If a mutant is used instead of the wild-type enzyme (from Bacillus subtilis), it is possible to further increase the residual activity of GlucDH. After 24 weeks storage at 32° C. and 85% relative air humidity in the presence of cNAD, the residual activity of a mutant GlucDH_E96G_E170K with the amino acid substitutions glutamic acid→glycine at position 96 and glutamic acid→lysine at position 170 (GlucDH-mut1) of the wild-type enzyme is about 70%, whereas the residual activity of a mutant GlucDH_E170K_K252L with the amino acid substitutions glutamic acid→lysine at position 170 and lysine→leucine at position 252 (GlucDH-mut2) is about 50% (FIG. 8).
# [5] = target: T1, alcohol dehydrogenase (ADH) (Saccharomyces cerevisiae, UniProt P00330); assay: Stability of alcohol dehydrogenase with coenzyme in a liquid phase at 35° C.; assay type: biochemical, yeast; conditions: 65 hours at 35° C., 5 mg/ml ADH, 50 mg/ml coenzyme, pH 9.0
# T1 sequence (P00330 1-348): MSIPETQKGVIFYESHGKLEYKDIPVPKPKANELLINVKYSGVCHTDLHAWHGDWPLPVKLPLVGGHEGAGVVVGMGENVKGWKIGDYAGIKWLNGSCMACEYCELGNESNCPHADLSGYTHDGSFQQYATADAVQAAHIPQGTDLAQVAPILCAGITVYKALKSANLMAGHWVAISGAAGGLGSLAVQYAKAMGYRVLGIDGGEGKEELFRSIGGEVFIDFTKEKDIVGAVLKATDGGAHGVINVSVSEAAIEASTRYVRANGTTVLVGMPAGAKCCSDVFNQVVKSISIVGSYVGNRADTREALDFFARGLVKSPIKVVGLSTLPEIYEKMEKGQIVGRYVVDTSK
# Procedure: FIG. 12 is a graphical illustration of the stability of alcohol dehydrogenase from yeast in the presence of NAD or cNAD in a liquid phase at 35° C. for a period of 65 hours with test conditions of 5 mg/ml ADH; 50 mg/ml NAD or cNAD; buffer: 75 mM Na4P2O7; glycine, pH 9.0; temperature 35° C.
# cNAD or NAD was added to a detection solution containing alcohol dehydrogenase. These mixtures were stored at 2-8° C. and at 35° C. Subsequently, the stability of alcohol dehydrogenase (ADH) was checked at regular intervals and the residual activity of the enzyme was determined.
# The residual activity of alcohol dehydrogenase in the presence of the native coenzyme NAD is at about 6% after 65 hours at 35° C., whereas the residual activity of the enzyme in the presence of the artificial coenzyme cNAD is still at about 60%.
# [6] = target: T2, alcohol dehydrogenase (Saccharomyces cerevisiae, UniProt P00330); assay: DSC of coenzyme binding; conditions: 3.8 mM ligand; 0.75M glycine sodium pyrophosphate, pH 9.0
# T2 sequence (P00330 1-348): T1 sequence (P00330 1-348)
# [7] = target: glucose dehydrogenase (GlucDH) (Bacillus subtilis, UniProt P12310); assay: Reaction kinetics, function curve and dry blank value of GlucDH/coenzyme formulations after warm, humid storage; assay type: biochemical
# Procedure: as §1
# However, a significant difference in the kinetics curves can be seen after 5 weeks.
# There is also a considerable difference in the blank values (dry blank value before application of a blood sample) as shown in FIG. 3.
# The different stability of glucose dehydrogenase in the presence of NAD or cNAD is also evident from a comparison of FIGS. 4 and 5. […] In this connection it is clear that the function of the enzyme is only slightly changed at high glucose concentrations over the entire period and approximately corresponds after 24 weeks to the value obtained after 5 weeks.
# [8] = target: glucose dehydrogenase (GlucDH, wild-type) (Bacillus subtilis, UniProt P12310); assay: Residual activity of GlucDH stored dry on Pokalon foils with coenzyme at 32° C., 85% relative air humidity; assay type: biochemical
# Procedure: as §1
# The result of the determination of residual activity of the active enzyme GlucDH after 5 weeks at 32° C. and 85% relative air humidity (FIG. 7A) is completely surprising. The enzyme stabilized with NAD now only has an extremely low enzyme activity (0.5%), whereas the enzyme stabilized with cNAD still has a residual activity of 70% (in each case compared to the samples stored in a refrigerator (KS) with desiccant (TM)). After 24 weeks at 32° C. and 85% relative air humidity (FIG. 7B) the residual activity of the enzyme when stabilized with cNAD is still about 25%.
# [9] = tested on: diaphorase; assay: Diaphorase activity extracted from triglyceride test strips after storage; assay type: biochemical; conditions: triglyceride test strips stored at 32° C. and 30-70% relative air humidity
# Procedure: A composition which, among others, contained glycerol dehydrogenase, carbaNAD, diaphorase and a tetrazolium salt was used to determine triglycerides. Test strips were obtained by applying the formulation mentioned in Table 4 to a polycarbonate foil by means of a doctor blade (layer height 80 μm) and subsequent drying, and they were stored at 32° C. and 30-70% relative air humidity.
compound,measurement,setting,value
NC(=O)c1ccc[n+]([C@@H]2C[C@H](COP(=O)([O-])OP(=O)(O)OC[C@H]3O[C@@H](n4cnc5c(N)ncnc54)[C@H](O)[C@@H]3O)[C@@H](O)[C@H]2O)c1 [carbaNAD],TM,[1],43.2 °C
same,ΔHcal,[1],340 kcal/mol
same,TM,[2],58.5 °C
same,ΔHcal,[2],84 kcal/mol
same,residual content of coenzyme in glucose detection reagent,[3],about 80 % of the initial value
same,residual activity of GlucDH-mut2,[4],about 50%
same,residual activity of alcohol dehydrogenase,[5],about 60%
same,TM,[6],55.4 °C
same,ΔHcal,[6],310 kcal/mol
same,function curve of GlucDH,[7]; after 5 weeks at 32° C. and 85% air humidity,still lies within the set of curves of the previous measurements
same,kinetics curves of GlucDH,[7]; after 5 weeks at 32° C. and 85% relative air humidity,remains virtually unchanged
same,dry blank value before application of a blood sample,[7]; up to 5 weeks at 32° C. and 85% air humidity,does not occur
same,residual activity of GlucDH,"[8]; 5 weeks at 32° C. and 85% relative air humidity, compared to samples stored in refrigerator with desiccant",70%
same,residual activity of GlucDH,[8]; 24 weeks at 32° C. and 85% relative air humidity,about 25%
same,residual activity of diaphorase compared to formulation containing NAD,[9],considerably increased residual activity
